Assay: physchem
Conditions: pH 7.4, LogD, pH 7.4

| logD at 1 h | Compound |
| --- | --- |
| 4.09 | Cn1cc(C(=O)Nc2ccc(F)cc2-c2ccc(Cl)c(Cl)c2)c(C(F)F)n1 [Bixafen, bixafen] |
| 3.58 | O=C(NC1CC2CC1(c1ccc(Cl)cc1)C2)c1cccnc1Cl (stereo not shown) [Compound 28] |
| 4.1 | Cn1cc(C(=O)NC2CC3CC2(c2ccc(Cl)c(Cl)c2)C3)c(C(F)F)n1 (stereo not shown) [Compound 29] |
| 3.61 | Cn1cc(C(=O)NC2CC3CC2(c2cc(F)c(F)c(F)c2)C3)c(C(F)F)n1 (stereo not shown) [Compound 30] |

From paper PMC10718076, “1,2-Disubstituted bicyclo[2.1.1]hexanes as saturated bioisosteres of ortho-substituted benzene” (Chemical Science, 2023)
